Source: article PMC5607081 (2017)

Test system: target DNA; 23-bp duplex DNA oligo (DNA, duplex) GCGAATAAGAGGAAGTGAAACCG/CGGTTTCACTTCCTCTTATTCGC
Assay: fluorescence polarization titration
Settings: 0.20 M NaCl; 10 mM TrisHCl, pH 7.5, 25°C, H2O, no osmolyte; apparent

## N=C(N)c1ccc2[nH]c(-c3ccc(-c4nc5cc(C(=N)N)ccc5[nH]4)[se]3)nc2c1
  −log (Kd, M): 9.90 ± 0.12 −log M
